Results taken from ChEMBL document CHEMBL6096698, “Discovery of a Selective and Orally Bioavailable RET Degrader with Effectiveness in Various Mutations” (J Med Chem, 2025).
Activity calls are given as the source filed them. The rule behind the calls is not given here.

Experiments:
BaF3 [1] = assay: Antiproliferative activity against mouse BaF3 cells stably expressing KIF5B-RET G810C mutant incubated for 72 hrs by CCK8 assay; assay type: functional, cell-based; conditions: BaF3, 72 h
BaF3 [2] = assay: Antiproliferative activity against mouse BaF3 cells stably expressing KIF5B-RET G810S mutant incubated for 72 hrs by CCK8 assay; assay type: functional, cell-based; conditions: BaF3, 72 h
[3] = Toxicity in BALB/c nu/nu mouse implanted with mouse BaF3 cells stably expressing KIF5B-RET G810C mutant assessed as body weight loss at 10 mg/kg, po qd treated for 10 days; assay type: organism-based; conditions: in vivo, 240 h, time 10 day
[4] = Induction of apoptosis in mouse BaF3 cells stably expressing KIF5B-RET G810C mutant assessed as necrotic cells at 20 nM incubated for 48 hrs by Annexin V-FITC/PI staining based flow cytometry (reference value: 0.94 %); assay type: functional
BaF3 [5] = assay: Antitumor activity against mouse BaF3 cells stably expressing KIF5B-RET G810C mutant implanted in BALB/c nu/nu mouse at 10 mg/kg, po qd treated for 10 days relative to control; assay type: functional; conditions: BaF3, 240 h, time 10 day, read-out: TGI
HL-60 = assay: Cytotoxicity against human HL-60 cells; assay type: functional, cell-based
[6] = Induction of apoptosis in mouse BaF3 cells stably expressing KIF5B-RET G810C mutant assessed as viable cells at 10 nM incubated for 48 hrs by Annexin V-FITC/PI staining based flow cytometry (reference value: 92.21 %); assay type: functional; conditions: read-out: Activity
[7] = Half life in Sprague-Dawley rat at 10 mg/kg, po measured for 24 hrs by LC-MS/MS analysis; assay type: ADME, organism-based; conditions: in vivo
BaF3 [8] = assay: PROTAC activity at CRBN/KIF5B-RET (unknown origin) expressed in mouse BaF3 cells assessed as induction of RET degradation at 10 nM incubated for 24 hrs by immunoblot analysis relative to control; assay type: cell-based
[9] = Volume of distribution at steady state in Sprague-Dawley rat at 1 mg/kg, iv measured for 24 hrs by LC-MS/MS analysis; assay type: ADME, organism-based; conditions: in vivo, read-out: Vdss
[10] = Toxicity in BALB/c nu/nu mouse implanted with mouse BaF3 cells stably expressing KIF5B-RET G810C mutant assessed as body weight loss at 10 mg/kg, po bid treated for 10 days; assay type: organism-based; conditions: in vivo, 240 h, time 10 day
[11] = PROTAC activity at CRBN/KIF5B-RET G810C mutant (unknown origin) expressed in mouse BaF3 cells assessed as induction of RET G810C mutant degradation incubated for 24 hrs by immunoblot analysis; assay type: cell-based; conditions: BaF3, 24 h
HeLa = assay: Cytotoxicity against human HeLa cells; assay type: functional, cell-based
[12] = Induction of apoptosis in mouse BaF3 cells stably expressing KIF5B-RET G810C mutant assessed as necrotic cells at 10 nM incubated for 48 hrs by Annexin V-FITC/PI staining based flow cytometry (reference value: 0.94 %); assay type: functional
BaF3 [13] = assay: Antiproliferative activity against mouse BaF3 cells stably expressing CCDC6-RET G810C mutant incubated for 72 hrs by CCK8 assay; assay type: functional, cell-based; conditions: BaF3, 72 h
[14] = Induction of apoptosis in mouse BaF3 cells stably expressing KIF5B-RET G810C mutant assessed as viable cells at 40 nM incubated for 48 hrs by Annexin V-FITC/PI staining based flow cytometry (reference value: 92.21 %); assay type: functional; conditions: read-out: Activity
BaF3 [15] = assay: Antitumor activity against mouse BaF3 cells stably expressing KIF5B-RET G810C mutant implanted in BALB/c nu/nu mouse at 10 mg/kg, po bid treated for 10 days relative to control; assay type: functional; conditions: BaF3, 240 h, time 10 day, read-out: TGI
[16] = Induction of apoptosis in mouse BaF3 cells stably expressing KIF5B-RET G810C mutant assessed as apoptotic cells at 10 nM incubated for 48 hrs by Annexin V-FITC/PI staining based flow cytometry (reference value: 6.7 %); assay type: functional
[17] = PROTAC activity at CRBN/KIF5B-RET (unknown origin) expressed in mouse BaF3 cells assessed as induction of RET degradation incubated for 24 hrs by immunoblot analysis; assay type: cell-based; conditions: BaF3, 24 h
[18] = Induction of apoptosis in mouse BaF3 cells stably expressing KIF5B-RET G810C mutant assessed as early apoptotic cells at 20 nM incubated for 48 hrs by Annexin V-FITC/PI staining based flow cytometry (reference value: 0.86 %); assay type: functional
A549 = assay: Cytotoxicity against human A549 cells; assay type: functional, cell-based
BaF3 [19] = assay: Cytotoxicity against mouse BaF3 cells; assay type: functional, cell-based
[20] = Tmax in Sprague-Dawley rat at 1 mg/kg, iv measured for 24 hrs by LC-MS/MS analysis; assay type: ADME, organism-based; conditions: in vivo
BaF3 [21] = assay: Antiproliferative activity against mouse BaF3 cells stably expressing KIF5B-RET incubated for 72 hrs by CCK8 assay; assay type: functional, cell-based; conditions: BaF3, 72 h
[22] = test system: Kinesin-1 heavy chain/ Tyrosine-protein kinase receptor RET (Homo sapiens), P07949+P33176 [G810C]; assay: In vivo PROTAC activity at CRBN/KIF5B-RET G810C mutant (unknown origin) expressed in mouse BaF3 cells implanted in BALB/c nu/nu mouse assessed as induction of RET G810C mutant degradation at 10 mg/kg, po qd treated for 10 days by Western blot analysis; assay type: functional, organism-based; conditions: time 10.0 day
[23] = target: Proto-oncogene tyrosine-protein kinase receptor Ret (Homo sapiens, UniProt P07949); assay: Inhibition of RET (unknown origin) at 10 nM by kinase profiling analysis relative to control
Sequence of Proto-oncogene tyrosine-protein kinase receptor Ret (P07949 whole entry): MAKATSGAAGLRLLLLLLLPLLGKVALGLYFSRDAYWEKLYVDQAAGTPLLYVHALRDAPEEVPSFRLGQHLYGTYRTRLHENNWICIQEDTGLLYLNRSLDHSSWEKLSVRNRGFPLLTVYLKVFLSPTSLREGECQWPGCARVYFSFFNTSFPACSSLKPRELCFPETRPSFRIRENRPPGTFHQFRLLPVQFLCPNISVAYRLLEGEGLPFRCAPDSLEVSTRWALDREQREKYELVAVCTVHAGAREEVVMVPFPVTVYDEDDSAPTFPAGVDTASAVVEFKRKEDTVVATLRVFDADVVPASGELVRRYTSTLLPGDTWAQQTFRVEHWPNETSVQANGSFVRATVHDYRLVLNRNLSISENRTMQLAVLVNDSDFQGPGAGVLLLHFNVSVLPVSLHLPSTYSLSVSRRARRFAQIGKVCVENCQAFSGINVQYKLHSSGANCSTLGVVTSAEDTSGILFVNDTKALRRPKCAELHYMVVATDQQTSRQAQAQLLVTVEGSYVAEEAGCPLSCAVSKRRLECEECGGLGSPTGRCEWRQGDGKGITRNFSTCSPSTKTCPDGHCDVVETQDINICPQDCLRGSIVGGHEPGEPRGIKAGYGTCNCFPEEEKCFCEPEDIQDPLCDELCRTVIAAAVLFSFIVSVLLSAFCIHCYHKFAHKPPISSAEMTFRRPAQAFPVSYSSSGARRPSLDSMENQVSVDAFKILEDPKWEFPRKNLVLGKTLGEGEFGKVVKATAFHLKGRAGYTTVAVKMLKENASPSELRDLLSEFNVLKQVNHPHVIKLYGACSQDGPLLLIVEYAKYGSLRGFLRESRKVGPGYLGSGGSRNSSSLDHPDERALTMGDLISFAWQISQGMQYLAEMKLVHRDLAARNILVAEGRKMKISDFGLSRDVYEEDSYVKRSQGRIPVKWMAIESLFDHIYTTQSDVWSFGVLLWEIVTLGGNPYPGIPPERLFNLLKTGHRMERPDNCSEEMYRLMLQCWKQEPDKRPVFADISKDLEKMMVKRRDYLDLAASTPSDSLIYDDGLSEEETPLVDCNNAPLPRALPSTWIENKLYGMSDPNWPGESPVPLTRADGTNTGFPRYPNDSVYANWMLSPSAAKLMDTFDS

BaF3 [24] = assay: PROTAC activity at CRBN/KIF5B-RET G810C mutant (unknown origin) expressed in mouse BaF3 cells assessed as induction of RET G810C mutant degradation at 1 to 100 nM incubated for 24 hrs by immunoblot analysis relative to control; assay type: cell-based; conditions: dose 1-100 nM
[25] = Induction of apoptosis in mouse BaF3 cells stably expressing KIF5B-RET G810C mutant assessed as late apoptotic cells at 40 nM incubated for 48 hrs by Annexin V-FITC/PI staining based flow cytometry (reference value: 5.99 %); assay type: functional
[26] = Induction of apoptosis in mouse BaF3 cells stably expressing KIF5B-RET G810C mutant assessed as late apoptotic cells at 20 nM incubated for 48 hrs by Annexin V-FITC/PI staining based flow cytometry (reference value: 5.99 %); assay type: functional
BaF3 [27] = assay: Antiproliferative activity against mouse BaF3 cells stably expressing KIF5B-RET V804M mutant incubated for 72 hrs by CCK8 assay; assay type: functional, cell-based; conditions: BaF3, 72 h
BaF3 [28] = assay: PROTAC activity at CRBN/KIF5B-RET (unknown origin) expressed in mouse BaF3 cells assessed as induction of RET degradation at 10 nM incubated for 24 hrs in presence of MG132 by immunoblot analysis; assay type: cell-based
[29] = AUC (0 to infinity) in Sprague-Dawley rat at 10 mg/kg, po measured for 24 hrs by LC-MS/MS analysis; assay type: ADME, organism-based; conditions: in vivo
BaF3 [30] = assay: Antiproliferative activity against mouse BaF3 cells stably expressing KIF5B-RET G810R mutant incubated for 72 hrs by CCK8 assay; assay type: functional, cell-based; conditions: BaF3, 72 h
[31] = Induction of apoptosis in mouse BaF3 cells stably expressing KIF5B-RET G810C mutant assessed as apoptotic cells at 40 nM incubated for 48 hrs by Annexin V-FITC/PI staining based flow cytometry (reference value: 6.7 %); assay type: functional

For `COc1ccc(CN2C3CC2CN(c2ccc(-c4cc(N5CCC(N6CCN(CCCC#Cc7cccc8c7CN(C7CCC(=O)NC7=O)C8=O)CC6)CC5)cn5ncc(C#N)c45)cn2)C3)cn1` (centres undefined), the IC50 (BaF3 [1]) was 5.3 nM, the IC50 (BaF3 [2]) was 22.6 nM and the Activity [3] was “Non-toxic”. It also gave an Activity [4] of 1.01%, an inhibition in vivo at 10 mg/kg (BaF3 [5]) of 62.3% and an IC50 (HL-60) of over 5 µM. The viability at 0.01 µM [6] was 64.3%, the half-life [7] was 493 min and the Activity (BaF3 [8]) was 65%. The Vd [9] was 31.9 L/kg, the Activity [10] was “Non-toxic” and the DC50 [11] was 11.7 nM. It also gave an IC50 (HeLa) of over 5 µM, an Activity [12] of 1.45% and an IC50 (BaF3 [13]) of 6.5 nM. It also gave a viability at 0.04 µM [14] of 27.9%, an inhibition in vivo at 10 mg/kg (BaF3 [15]) of 85.1% and an Activity [16] of 34.1%. For the same compound, the DC50 [17] was 5.6 nM, the Activity [18] was 38.21% and the IC50 (A549) was over 5 µM. For the same compound, the IC50 (BaF3 [19]) was over 5 µM, the Tmax [20] was 4.98 min and the IC50 (BaF3 [21]) was 2.6 nM. The Activity [22] was “Active”, the inhibition [23] was over 50% and the Emax (BaF3 [24]) was 91%. The Activity [25] was 15.31%, the Activity [26] was 17.41% and the IC50 (BaF3 [27]) was 5.2 nM. For the same compound, the Activity (BaF3 [28]) was “inactive”, the AUC(0-inf) [29] was 1190 ng·h/mL and the IC50 (BaF3 [30]) was 165 nM. It also gave an Activity [31] of 71.3%.
